According to patent publication US7160916B2, “Method of increasing bone density or treating osteoporosis” (Yung Shin Pharmaceutical Ind. Co., Ltd., priority 2003, dated 2007):
Marks after values point to notes of the source that are not given here.

What was measured:
[1] = test system: ovariectomized adult female rats; experiment: Ovariectomy-induced bone loss: bone size, BMD, BMC, bone volume; format: in vivo, rat
Description: Bone histomorphometry: After formalin fixation of tibia was completed, the tibiae were then decalcified in 0.5 N hydrochloric acid, dehydrated in an ascending series of ethanol solution and acetone, and embedded in paraffin. Serial sections (5 μm) were cut longitudinally and stained with Mayer's hematoxylin-eosin solution (Yang et al. (1993) Calcif Tissue Int 52:57–61). Images of the growth plate and proximal tibia were photographed using a photoMicroGraphic Digitize integrate System (MGDS; Total-Integra Technology Co., Ltd., Taipei, Taiwan). Bone volume measurements were performed on the whole secondary spongiosa, which is located under the primary spongiosa and characterized by a network of larger trabeculae. Bone volumes were calculated using an image analysis software. All measurements were done in a single-blind fashion. Ovariectomy and cut of sciatic nerve: Ovariectomy and cut of sciatic nerve were performed in adult female and male rats (3 month-old), respectively. After surgery, the rats were injected with Indazole 1 (i.p., 1 mg/Kg) or a vehicle daily for 4 weeks. On the day following the last injection, the rats were sacrificed and their tibia and femur were removed. Tibia and femur Preparation: At the end of the program, the rats were sacrificed by decapitation. The tibiae were removed, cleaned of soft tissue, and the length of the tibia was measured with a precision caliper (±0.05 mm) as described by Weinreb et al. (1991) J Bone Miner Res 6:725–731. The tibiae were fixed in 10% formaldehyde for 48 h at 4° C. for bone histomorphometry analysis. Some of the tibia and femur were also removed and kept at −20° C. for bone mineral analysis. Analysis of bone mineral density (BMD) and content (BMC): BMD and BMC of the tibia and femur were measured with a dual-energy X-ray absorptiometer (DEXA, XR-26; Norland, Fort Atkinson, Wis.). The mode adapted to the measurements of small subjects was adopted. A coefficient of variation of 0.7% was calculated from daily measurements of BMD on a lumbar phantom for more than 1 year (Yang et al. (1998) Calcif Tissue Int 63:86–90). The tibia and femur were thawed to room temperature before bone mineral analysis. The whole tibiae and femur were scanned and BMD and BMC were measured by absorptiometer. Prevention of bone loss: Ovariectomy (OVX) was performed in adult female rats (n=28). After ovariectomy, one group of the ovariectomized rats (n=16) were injected with Indazole 1 (i.p., 1 mg/kg/day), and the other group (n=12) were not. 15 un-ovarietctomized adult female rats were used as sham-operated controls and were not injected with Indazole 1. […] A 60% reduction in bone volume was observed 4 weeks after ovariectomy. […] The bone volume reached 76% of sham-operated controls.

adult male rats = experiment: Bone loss induced by the cut of sciatic nerve; format: in vivo, rat; parameters: Tibia BMD / Tibia BMC / Femur BMD / Femur BMC: unit not given here; settings: for Bone volume / Femur BMC / Femur BMD / Femur length / Femur weight / Tibia BMC / Tibia BMD / Tibia length / Tibia weight: i.p. 1 mg/kg daily for 1 month, mean ± S.E., n=10
Description: Bone histomorphometry: After formalin fixation of tibia was completed, the tibiae were then decalcified in 0.5 N hydrochloric acid, dehydrated in an ascending series of ethanol solution and acetone, and embedded in paraffin. Serial sections (5 μm) were cut longitudinally and stained with Mayer's hematoxylin-eosin solution (Yang et al. (1993) Calcif Tissue Int 52:57–61). Images of the growth plate and proximal tibia were photographed using a photoMicroGraphic Digitize integrate System (MGDS; Total-Integra Technology Co., Ltd., Taipei, Taiwan). Bone volume measurements were performed on the whole secondary spongiosa, which is located under the primary spongiosa and characterized by a network of larger trabeculae. Bone volumes were calculated using an image analysis software. All measurements were done in a single-blind fashion. Ovariectomy and cut of sciatic nerve: Ovariectomy and cut of sciatic nerve were performed in adult female and male rats (3 month-old), respectively. After surgery, the rats were injected with Indazole 1 (i.p., 1 mg/Kg) or a vehicle daily for 4 weeks. On the day following the last injection, the rats were sacrificed and their tibia and femur were removed. Tibia and femur Preparation: At the end of the program, the rats were sacrificed by decapitation. The tibiae were removed, cleaned of soft tissue, and the length of the tibia was measured with a precision caliper (±0.05 mm) as described by Weinreb et al. (1991) J Bone Miner Res 6:725–731. The tibiae were fixed in 10% formaldehyde for 48 h at 4° C. for bone histomorphometry analysis. Some of the tibia and femur were also removed and kept at −20° C. for bone mineral analysis. Analysis of bone mineral density (BMD) and content (BMC): BMD and BMC of the tibia and femur were measured with a dual-energy X-ray absorptiometer (DEXA, XR-26; Norland, Fort Atkinson, Wis.). The mode adapted to the measurements of small subjects was adopted. A coefficient of variation of 0.7% was calculated from daily measurements of BMD on a lumbar phantom for more than 1 year (Yang et al. (1998) Calcif Tissue Int 63:86–90). The tibia and femur were thawed to room temperature before bone mineral analysis. The whole tibiae and femur were scanned and BMD and BMC were measured by absorptiometer.

[2] = OVX rats, 1 mg/kg daily for 4 weeks
[3] = OVX rats, i.p. 1 mg/kg daily for 1 month, mean ± S.E.

OCc1ccc(-c2nn(Cc3ccccc3)c3ccccc23)o1 [Indazole 1, 1-benzyl-3-(5′-hydroxymethyl-2′-furyl)-indazole]
bone volume relative to sham-operated controls [1, 2]: 76 % of sham-operated controls
loss of trabecular bone of tibia secondary spongiosa [1, 2]: reduced loss of trabecular bone
Femur BMC [1, 3]: 0.281 ± 0.001^b
Femur BMD [1, 3]: 0.112 ± 0.002^b
Femur length [1, 3]: 3.55 ± 0.01 cm
Femur weight [1, 3]: 0.87 ± 0.01 g
Tibia BMC [1, 3]: 0.173 ± 0.011^b
Tibia BMD [1, 3]: 0.097 ± 0.002^b
Tibia length [1, 3]: 4.05 ± 0.03 cm
Tibia weight [1, 3]: 0.67 ± 0.01 g
ovariectomy-induced loss of BMD and BMC in both tibia and femur ([1]; daily injection, i.p. 1 mg/kg/day): provided protection
bone loss induced by nerve section (adult male rats; 1 mg/kg daily for 4 weeks immediately after the cut of sciatic nerve): antagonized the bone loss
Bone volume (adult male rats; Contralateral side): 11.9 ± 0.98%
Femur BMC (adult male rats; Contralateral side): 0.419 ± 0.016
Femur BMD (adult male rats; Contralateral side): 0.132 ± 0.003
Femur length (adult male rats; Contralateral side): 3.95 ± 0.02 cm
Femur weight (adult male rats; Contralateral side): 1.16 ± 0.03 g
Tibia BMC (adult male rats; Contralateral side): 0.282 ± 0.013
Tibia BMD (adult male rats; Contralateral side): 0.106 ± 0.002
Tibia length (adult male rats; Contralateral side): 4.36 ± 0.01 cm
Tibia weight (adult male rats; Contralateral side): 0.92 ± 0.03 g
Bone volume (adult male rats; Surgery side): 9.43 ± 0.8%
Femur BMC (adult male rats; Surgery side): 0.394 ± 0.015
Femur BMD (adult male rats; Surgery side): 0.129 ± 0.003
Femur length (adult male rats; Surgery side): 3.96 ± 0.01 cm
Femur weight (adult male rats; Surgery side): 1.17 ± 0.03 g
Tibia BMC (adult male rats; Surgery side): 0.298 ± 0.014
Tibia BMD (adult male rats; Surgery side): 0.106 ± 0.002
Tibia length (adult male rats; Surgery side): 4.35 ± 0.01 cm
Tibia weight (adult male rats; Surgery side): 0.91 ± 0.03 g
